Assay results: the NIST ThermoML archive (doi:10.1016/j.jct.2015.03.011)
“And” between values parts separate entries of the source, which are not always exact repeats. Identical values can stand only once.

Settings: Liquid, Transpiration method

CC(C)(N)CN [2-methyl-1,2-propanediamine]
Settings	vapor or sublimation pressure
276 K	0.2878 kPa
276.6 K	0.3031 kPa
277.6 K	0.3267 kPa
278.1 K	0.3442 kPa
279.3 K	0.3687 kPa
280.6 K	0.405 kPa
282.4 K	0.4569 kPa and 0.4785 kPa
283.2 K	0.492 kPa
284.5 K	0.548 kPa and 0.5301 kPa
286 K	0.5853 kPa
288.4 K	0.7053 kPa
290.4 K	0.7971 kPa
292.5 K	0.9233 kPa
294.3 K	1.052 kPa
295.9 K	1.144 kPa
297.2 K	1.299 kPa
299 K	1.422 kPa
300.3 K	1.575 kPa
302 K	1.752 kPa
304.6 K	2.037 kPa
306.1 K	2.247 kPa
307.6 K	2.451 kPa
308.7 K	2.62 kPa

CC(N)CN (stereo unspecified) [1,2-propanediamine]
Settings	vapor or sublimation pressure [kPa]
273.8 K	0.2726
274.9 K	0.2967
276.6 K	0.3411
277 K	0.3482
279.1 K	0.4011
279.7 K	0.4205
281.3 K	0.4594
282.7 K	0.5281
283.2 K	0.5245
285.3 K	0.6214
285.7 K	0.6306
287.3 K	0.72
288.7 K	0.7897
289.2 K	0.8316
291.2 K	0.9464
291.7 K	0.9537
293.1 K	1.069
294.7 K	1.187
295.2 K	1.234
297.1 K	1.357
297.6 K	1.422
299.1 K	1.559
299.6 K	1.629
301.2 K	1.82
301.7 K	1.84
303.2 K	2.075
303.7 K	2.099
305.7 K	2.354
